# Experimental data as given in PubChem BioAssay (NCI).
#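 A five-concentration, 48-hour dose response in 96-well plates underlies each endpoint, interpolated linearly between surrounding concentrations. GI50 = concentration required for 50% inhibition of growth. At the TGI there is no net growth.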
# Legend:
# Assay in all cases: NCI tumour cell line growth inhibition, 48 h
# [1] = test system: 786-0 renal
# [2] = test system: A498 renal
# [3] = test system: A549 NSCLC
# [4] = test system: ACHN renal
# [5] = test system: BT-549 breast
# [6] = test system: CAKI-1 renal
# [7] = test system: CCRF-CEM leukemia
# [8] = test system: COLO 205 colon
# [9] = test system: DU-145 prostate
# [10] = test system: EKVX NSCLC
# [11] = test system: HCC-2998 colon
# [12] = test system: HCT-116 colon
# [13] = test system: HCT-15 colon
# [14] = test system: HL-60(TB) leukemia
# [15] = test system: HOP-62 NSCLC
# [16] = test system: HOP-92 NSCLC
# [17] = test system: HS 578T breast
# [18] = test system: HT29 colon
# [19] = test system: IGROV1 ovarian
# [20] = test system: K-562 leukemia
# [21] = test system: KM12 colon
# [22] = test system: LOX IMVI melanoma
# [23] = test system: MALME-3M melanoma
# [24] = test system: MCF7 breast
# [25] = test system: MDA-MB-231 breast
# [26] = test system: MDA-MB-435
# [27] = test system: MOLT-4 leukemia
# [28] = test system: NCI-H226 lung
# [29] = test system: NCI-H23 lung
# [30] = test system: NCI-H460 lung
# [31] = test system: NCI-H522 lung
# [32] = test system: NCI/ADR-RES ovarian
# [33] = test system: OVCAR-3 ovarian
# [34] = test system: OVCAR-4 ovarian
# [35] = test system: OVCAR-5 ovarian
# [36] = test system: OVCAR-8 ovarian
# [37] = test system: PC-3 prostate
# [38] = test system: RPMI-8226 leukemia
# [39] = test system: RXF 393 renal
# [40] = test system: SF-268 CNS
# [41] = test system: SF-295 CNS
# [42] = test system: SF-539 CNS
# [43] = test system: SK-MEL-2 melanoma
# [44] = test system: SK-MEL-28 melanoma
# [45] = test system: SK-MEL-5 melanoma
# [46] = test system: SK-OV-3 ovarian
# [47] = test system: SN12C renal
# [48] = test system: SNB-19 CNS
# [49] = test system: SNB-75 CNS
# [50] = test system: SR leukemia
# [51] = test system: SW-620 colon
# [52] = test system: T-47D breast
# [53] = test system: TK-10 renal
# [54] = test system: U251 CNS
# [55] = test system: UACC-257 melanoma
# [56] = test system: UACC-62 melanoma
# [57] = test system: UO-31 renal
compound,measurement,setting,value
CC(C)(C)OC(=O)CN1CCc2c(sc3ncnc(N/N=C/c4cccc5ccccc45)c23)C1,GI50,[1],4.11 µM
same,TGI,[1],16.4 µM
same,GI50,[2],3.78 µM
same,TGI,[2],11.9 µM
same,GI50,[3],3.03 µM
same,TGI,[3],> 33.3 µM
same,GI50,[4],1.59 µM
same,TGI,[4],7.5 µM
same,GI50,[5],6.03 µM
same,TGI,[5],> 33.3 µM
same,GI50,[6],3.3 µM
same,TGI,[6],18.7 µM
same,GI50,[7],1.56 µM
same,TGI,[7],> 33.3 µM
same,GI50,[8],1.07 µM
same,TGI,[8],3.93 µM
same,GI50,[9],4.73 µM
same,TGI,[9],31.9 µM
same,GI50,[10],2.22 µM
same,TGI,[10],> 33.3 µM
same,GI50,[11],3.6 µM
same,TGI,[11],11.7 µM
same,GI50,[12],1.65 µM
same,TGI,[12],6.73 µM
same,GI50,[13],2.2 µM
same,TGI,[13],9.57 µM
same,GI50,[14],2.55 µM
same,TGI,[14],19.2 µM
same,GI50,[15],2.31 µM
same,TGI,[15],11.4 µM
same,GI50,[16],1.74 µM
same,TGI,[16],16.7 µM
same,GI50,[17],1.42 µM
same,TGI,[17],16 µM
same,GI50,[18],3.47 µM
same,TGI,[18],12.3 µM
same,GI50,[19],1.87 µM
same,TGI,[19],7.4 µM
same,GI50,[20],1.08 µM
same,TGI,[20],> 33.3 µM
same,GI50,[21],3.53 µM
same,TGI,[21],9.8 µM
same,GI50,[22],1.72 µM
same,TGI,[22],5.93 µM
same,GI50,[23],3.51 µM
same,TGI,[23],8.69 µM
same,GI50,[24],0.923 µM
same,TGI,[24],2.85 µM
same,GI50,[25],2.64 µM
same,TGI,[25],9.21 µM
same,GI50,[26],2.1 µM
same,TGI,[26],9.83 µM
same,GI50,[27],1.26 µM
same,TGI,[27],9.39 µM
same,GI50,[28],4.28 µM
same,TGI,[28],12.8 µM
same,GI50,[29],4.19 µM
same,TGI,[29],17.4 µM
same,GI50,[30],1.62 µM
same,TGI,[30],6.22 µM
same,GI50,[31],2.16 µM
same,TGI,[31],12.4 µM
same,GI50,[32],3.55 µM
same,TGI,[32],14.5 µM
same,GI50,[33],1 µM
same,TGI,[33],3.92 µM
same,GI50,[34],2.58 µM
same,TGI,[34],14.1 µM
same,GI50,[35],3.34 µM
same,TGI,[35],8.41 µM
same,GI50,[36],2.58 µM
same,TGI,[36],> 33.3 µM
same,GI50,[37],2.04 µM
same,TGI,[37],> 33.3 µM
same,GI50,[38],1.05 µM
same,TGI,[38],4.22 µM
same,GI50,[39],1.56 µM
same,TGI,[39],6.93 µM
same,GI50,[40],3.59 µM
same,TGI,[40],24.3 µM
same,GI50,[41],4.41 µM
same,TGI,[41],10.2 µM
same,GI50,[42],1.73 µM
same,TGI,[42],7.02 µM
same,GI50,[43],5 µM
same,TGI,[43],12.3 µM
same,GI50,[44],4.41 µM
same,TGI,[44],15.7 µM
same,GI50,[45],4.08 µM
same,TGI,[45],8.28 µM
same,GI50,[46],4.48 µM
same,TGI,[46],26.1 µM
same,GI50,[47],3.65 µM
same,TGI,[47],9.04 µM
same,GI50,[48],4.73 µM
same,TGI,[48],32.1 µM
same,GI50,[49],1.04 µM
same,TGI,[49],14.4 µM
same,GI50,[50],1.46 µM
same,TGI,[50],15.2 µM
same,GI50,[51],1.8 µM
same,TGI,[51],7.96 µM
same,GI50,[52],1.83 µM
same,TGI,[52],17.9 µM
same,GI50,[53],5.34 µM
same,TGI,[53],> 33.3 µM
same,GI50,[54],3.18 µM
same,TGI,[54],14.6 µM
same,GI50,[55],4.59 µM
same,TGI,[55],21.7 µM
same,GI50,[56],1.32 µM
same,TGI,[56],5.48 µM
same,GI50,[57],1.19 µM
same,TGI,[57],5.87 µM
